According to ChEMBL document CHEMBL3885861, “Open TG-GATES”:

Organism: Rattus norvegicus
Assay: Open TG-GATES - Regimen: Single
Assay type: toxicity, organism-based, Sprague-Dawley
Set-up: regimen Single, gender Male, age 6 weeks
Conditions: in vivo, po, 100 mg/kg, route gavage, dose level Low; for APTT / Bas / Eos / Fbg / Hb / Ht / Lym / MCH / MCHC / MCV / Mono / Neu / PT / Plat / RBC / Ret / WBC: tissue Blood; for KIDNEY_L / KIDNEY_R / KIDNEY_TOTAL: tissue Kidney; for LIVER: tissue Liver; for A/G / ALP / ALT / AST / BUN / CRE / Ca / Cl / DBIL / GLC / IP / LDH / Na / PL / RALB / TBIL / TC / TG / TP / gamma-GTP: tissue Plasma

NC(N)=Nc1nc(CSCCC(N)=NS(N)(=O)=O)cs1 [FAMOTIDINE]
TERMINAL_BW (3 h): 213.7 g
APTT (3 h): 19.6 s
Bas (3 h): 0%
Eos (3 h): 0.6%
Fbg (3 h): 217.4 mg/dL
Hb (3 h): 13.5 g/dL
Ht (3 h): 38.2%
Lym (3 h): 71.2%
MCH (3 h): 22.6 pg
MCHC (3 h): 35.3%
MCV (3 h): 64.1 fL
Mono (3 h): 2.4%
Neu (3 h): 24%
PT (3 h): 12.3 s
Plat (3 h): 112.1 x10_4/uL
RBC (3 h): 596.2 x10_4/ul
Ret (3 h): 7.2%
WBC (3 h): 80 x10_2/uL
KIDNEY_L (3 h): 1 g
KIDNEY_R (3 h): 1 g
KIDNEY_TOTAL (3 h): 1.9 g
LIVER (3 h): 10.3 g
A/G (3 h): 1.7
ALP (3 h): 1057.6 IU/L
ALT (3 h): 38 IU/L
AST (3 h): 64.8 IU/L
BUN (3 h): 9.4 mg/dL
CRE (3 h): 0.4 mg/dL
Ca (3 h): 10.5 mg/dL
Cl (3 h): 104.2 meq/L
DBIL (3 h): 0.076 mg/dL
GLC (3 h): 196.2 mg/dL
IP (3 h): 9.2 mg/dL
LDH (3 h): 186.2 IU/L
Na (3 h): 141 meq/L
PL (3 h): 144.6 mg/dL
RALB (3 h): 3.4 g/dL
TBIL (3 h): 0.1 mg/dL
TC (3 h): 79 mg/dL
TG (3 h): 56.6 mg/dL
TP (3 h): 5.5 g/dL
gamma-GTP (3 h): 1 IU/L
TERMINAL_BW (6 h): 212.2 g
APTT (6 h): 18.5 s
Bas (6 h): 0%
Eos (6 h): 0.8%
Fbg (6 h): 222.2 mg/dL
Hb (6 h): 13.4 g/dL
Ht (6 h): 37.5%
Lym (6 h): 71.4%
MCH (6 h): 22.2 pg
MCHC (6 h): 35.7%
MCV (6 h): 62.3 fL
Mono (6 h): 2.6%
Neu (6 h): 22.8%
PT (6 h): 12.4 s
Plat (6 h): 120.7 x10_4/uL
RBC (6 h): 602.6 x10_4/ul
Ret (6 h): 6.8%
WBC (6 h): 98.6 x10_2/uL
KIDNEY_L (6 h): 1 g
KIDNEY_R (6 h): 0.9 g
KIDNEY_TOTAL (6 h): 1.9 g
LIVER (6 h): 9.4 g
A/G (6 h): 1.5
ALP (6 h): 808.4 IU/L
ALT (6 h): 34.2 IU/L
AST (6 h): 68 IU/L
BUN (6 h): 9.4 mg/dL
CRE (6 h): 0.4 mg/dL
Ca (6 h): 10.7 mg/dL
Cl (6 h): 103.2 meq/L
DBIL (6 h): 0.068 mg/dL
GLC (6 h): 189.4 mg/dL
IP (6 h): 9 mg/dL
LDH (6 h): 202 IU/L
Na (6 h): 140.4 meq/L
PL (6 h): 141.2 mg/dL
RALB (6 h): 3.2 g/dL
TBIL (6 h): 0.1 mg/dL
TC (6 h): 82 mg/dL
TG (6 h): 60 mg/dL
TP (6 h): 5.4 g/dL
gamma-GTP (6 h): 1.4 IU/L
TERMINAL_BW (9 h): 209.4 g
APTT (9 h): 18.3 s
Bas (9 h): 0%
Eos (9 h): 0.8%
Fbg (9 h): 232.2 mg/dL
Hb (9 h): 13.4 g/dL
Ht (9 h): 37.1%
Lym (9 h): 74.2%
MCH (9 h): 22 pg
MCHC (9 h): 36%
MCV (9 h): 61.2 fL
Mono (9 h): 2.2%
Neu (9 h): 19.2%
PT (9 h): 12.1 s
Plat (9 h): 116.7 x10_4/uL
RBC (9 h): 606.6 x10_4/ul
Ret (9 h): 7%
WBC (9 h): 87.3 x10_2/uL
KIDNEY_L (9 h): 0.9 g
KIDNEY_R (9 h): 1 g
KIDNEY_TOTAL (9 h): 1.9 g
LIVER (9 h): 9 g
A/G (9 h): 1.6
ALP (9 h): 851.2 IU/L
ALT (9 h): 31.2 IU/L
AST (9 h): 61.2 IU/L
BUN (9 h): 10.2 mg/dL
CRE (9 h): 0.4 mg/dL
Ca (9 h): 10.5 mg/dL
Cl (9 h): 103.6 meq/L
DBIL (9 h): 0.064 mg/dL
GLC (9 h): 200.8 mg/dL
IP (9 h): 8.8 mg/dL
LDH (9 h): 135.4 IU/L
Na (9 h): 141 meq/L
PL (9 h): 140.8 mg/dL
RALB (9 h): 3.4 g/dL
TBIL (9 h): 0.1 mg/dL
TC (9 h): 80.6 mg/dL
TG (9 h): 62.4 mg/dL
TP (9 h): 5.5 g/dL
gamma-GTP (9 h): 0.8 IU/L
TERMINAL_BW (24 h): 225.3 g
APTT (24 h): 19.8 s
Bas (24 h): 0%
Eos (24 h): 1%
Fbg (24 h): 229.6 mg/dL
Hb (24 h): 13.3 g/dL
Ht (24 h): 37.2%
Lym (24 h): 78.2%
MCH (24 h): 22.3 pg
MCHC (24 h): 35.8%
MCV (24 h): 62.2 fL
Mono (24 h): 2.2%
Neu (24 h): 16.2%
PT (24 h): 12 s
Plat (24 h): 121.8 x10_4/uL
RBC (24 h): 599.4 x10_4/ul
Ret (24 h): 6.1%
WBC (24 h): 86.8 x10_2/uL
KIDNEY_L (24 h): 1 g
KIDNEY_R (24 h): 1 g
KIDNEY_TOTAL (24 h): 2 g
LIVER (24 h): 10.8 g
A/G (24 h): 1.4
ALP (24 h): 990 IU/L
ALT (24 h): 40.6 IU/L
AST (24 h): 68.2 IU/L
BUN (24 h): 14.2 mg/dL
CRE (24 h): 0.4 mg/dL
Ca (24 h): 10.6 mg/dL
Cl (24 h): 104.2 meq/L
DBIL (24 h): 0.076 mg/dL
GLC (24 h): 199.4 mg/dL
IP (24 h): 7.7 mg/dL
LDH (24 h): 198.4 IU/L
Na (24 h): 140.6 meq/L
PL (24 h): 145.8 mg/dL
RALB (24 h): 3.3 g/dL
TBIL (24 h): 0.1 mg/dL
TC (24 h): 74.2 mg/dL
TG (24 h): 82.6 mg/dL
TP (24 h): 5.6 g/dL
gamma-GTP (24 h): 0.6 IU/L
